Data reported in patent US8697652B2, “Cosmetic use of at least the natural tetrapeptide Ac-Ser-Asp-Lys-Pro or one of its analogs as a skin restructuring agent” (Centre National de la Recherche Scientifique (CNRS), priority 2004, dated 2014).
Ends that are not written are not given here.

What was measured:
Assay type in all cases: cell-based
[1] = system: human skin explants; experiment: General morphology (Masson Trichrome) of human skin explants treated topically with AcSDKP
Method: (§1) This study was conducted on thirty six human skin explants obtained from breast plastic surgery.
(§2) All the explants were maintained in a state of survival in a culture medium for eight days. AcSDKP at a concentration of 10^−5 M or 10^−8 M in physiological serum was applied to the explants by topical route every day for one week. On days 2, 4, 6 and 8, three explants from each batch (control, +AcSDKP 10^−5 M+ AcSDKP 10^−8 M) were removed and prepared for histological studies. General morphology was examined and an evaluation of the expression of basal keratin (CK14), undifferentiated keratin (CK19), collagen III, collagen IV, fibronectin and glycosaminoglycan without an acid group was performed.
This is seen by an increased number of live cell bases.

[2] = system: Keratin 14 (CK14); experiment: Immunolabelling of keratin 14 in human skin explants
Method: as §1, §2

[3] = system: Keratin 19 (CK19); experiment: Immunolabelling of keratin 19 in human skin explants
Method: as §1, §2

[4] = system: Dermal Collagen (Type III); experiment: Immunolabelling of collagen III in human skin explants
Method: as §1, §2

[5] = system: Basal Membrane Collagen (Type IV); experiment: Immunolabelling of collagen IV in human skin explants
Method: as §1, §2

[6] = system: fibronectin; experiment: Immunolabelling of fibronectin in human skin explants
Method: as §1, §2

[7] = system: Glycosaminoglycan (GAGs); experiment: P.A.S. Alcian blue staining of GAGs without acid groups in human skin explants
Method: as §1, §2
This effect, clearly visible at D6 and D8, is characterised by a PAS positive increase in the number of fibroblasts in the papillary dermis, especially in the band situated along the dermo-epidermal junction and by increased levels of GAGs in these fibroblasts.

[8] = AcSDKP 10^-5 M compared with 10^-8 M

## Acetyl-Ser-Asp-Lys-Pro (Ac-SDKP) [AcSDKP, natural tetrapeptide isolated from calf foetus bone marrow or obtained by peptide synthesis]
[1]; [8]
  increase in epidermal thickness: greater
[1]; AcSDKP 10^-5 M or 10^-8 M, topical daily, as of D6 of treatment
  epidermal structure (general morphology): stimulation of the epidermal structure
[1]; conclusion of explant study
  overall effect on epidermis and dermis (conclusion): restructuring of the epidermis and dermis
[2]; [8]
  CK14 restructuring effect: greater
[2]; basal and superbasal position, as of D4 of treatment
  CK14 levels (immunolabelling): gradual increase in the levels of this protein
[2]; summary statement
  production of CK14 in treated skin (summary): stimulates the production
[3]; [8]
  CK19 effect: less marked effect
[3]; AcSDKP 10^-5 M or 10^-8 M, as of D6 of treatment
  CK19 expression (immunolabelling): overexpression of the skin's dermal attachments
[3]; summary statement
  production of CK19 in treated skin (summary): stimulates the production
[4]; AcSDKP 10^-5 M, D8
  collagen III expression: very clear overexpression of collagen III in the papillary and reticular dermis
[4]; AcSDKP 10^-5 M, six days of treatment
  collagen III levels: very marked increase in collagen III levels in the papillary dermis along the dermo-epidermal junction
[4]; AcSDKP 10^-8 M, D6
  collagen III in the remainder of the papillary dermis and reticular dermis: more present
[4]; AcSDKP 10^-8 M, D6, compared with 10^-5 M
  collagen III expression along the dermo-epidermal junction: less pronounced
[4]; AcSDKP 10^-8 M, D8
  level of collagen III: increases along the dermo-epidermal junction and forms a thicker collagen band
[4]; summary statement
  expression of collagen III in treated skin (summary): stimulatory effect
[5]; [8]
  increase in collagen IV levels: higher
[5]; AcSDKP 10^-5 M or 10^-8 M, D6 and D8, compared with type III collagen
  increase in collagen IV levels in the basal membrane along the dermo-epidermal junction: less pronounced than that for type III collagen
[5]; summary statement
  expression of collagen IV in treated skin (summary): stimulatory effect
[6]; [8]
  fibronectin activity: greater activity
[6]; area treated with AcSDKP
  fibronectin network: denser and has thicker fibres
[6]; treated skin
  fibronectin expression (immunolabelling, summary): overexpression of this protein along a dermo-epidermal junction as well as in the papillary and reticular dermis
[7]; [8]
  GAG activity: higher level of activity
[7]; AcSDKP 10^-5 M or 10^-8 M, clearly visible at D6 and D8
  levels of GAGs without acid groups: significant increase in the levels of these compounds
